# Laboratory results from article PMC10661491 (Virus Research, 2023).
# Read-outs that look alike come from different tables or passages of the source.
# Assays:
# ASFV [1] = assay type: cell-based, African Swine Fever Virus (ASFV)
# macropinocytosis of PAMs = assay type: cell-based, pigs
# PI3K/Akt pathway = assay type: cell-based, pigs
# ASFV [2] = assay type: cell-based, African Swine Fever Virus (ASFV); remark: listed apart in the source
# ASFV [3] = assay: microbe, parasite or virus in culture; assay type: cell-based; details: African swine fever virus, read-out: IC50 against ASFV
# ASFV [4] = assay: microbe, parasite or virus in culture; assay type: cell-based; details: African swine fever virus, BMDM, read-out: IC50 against ASFV
# ASFV [5] = assay: microbe, parasite or virus in culture; assay type: cell-based; details: African swine fever virus, MA104, read-out: IC50 against ASFV
# ASFV [6] = assay type: cell-based, African Swine Fever Virus (ASFV); remark: listed apart in the source
# ASFV [7] = assay type: cell-based, African Swine Fever Virus (ASFV); remark: listed apart in the source
# ASFV [8] = assay type: cell-based, African Swine Fever Virus (ASFV); remark: listed apart in the source
# ASFV [9] = assay type: cell-based, African Swine Fever Virus (ASFV); remark: listed apart in the source
# [10] = system: clathrin-mediated endocytosis of PAMs; assay type: cell-based, pigs
# LSDV = assay type: cell-based, Lumpy Skin Disease Virus (LSDV)
# PEDV = assay type: cell-based, Porcine Epidemic Diarrhea Virus (PEDV)
smiles,measurement,setting,value
O=c1cc(N2CCOCC2)oc2c(-c3ccccc3)cccc12 [LY294002],"expression of ASFV p72 (Western Blot, Fig. 7(B))",ASFV [1],not detected
same,uptake of dextran-Alexa647 by PAMs,macropinocytosis of PAMs,no uptake of dextran-Alexa647
same,"phosphorylation of Akt (Western Blot, Fig. 7(B))",PI3K/Akt pathway,completely inhibited
same,levels of CP204L and B646L,ASFV [2],significantly suppressed
"COc1ccc2cc1Oc1ccc(cc1)C[C@H]1c3cc(c(OC)cc3CCN1C)Oc1c(OC)c(OC)cc3c1[C@H](C2)N(C)CC3 [TET, Tetrandrine]",IC50,ASFV [3],0.45 µM
same,IC50,ASFV [4],1.15 µM
same,IC50,ASFV [5],0.87 µM
same,ASFV-infected (fluorescent) PAMs by IFA,ASFV [6],hardly any fluorescent PAMs were observed
same,expression level of ASFV p72 (Western Blot),ASFV [1],dose-dependent inhibition
same,"expression of ASFV p72 (Western Blot, Fig. 7(B))",ASFV [1],not detected
same,inhibition rate of TET on ASFV compared to the LY294002 control group,ASFV [1],~0%
same,level of ASFV-p72 protein (Western Blot),ASFV [1],significantly reduced
same,"ASFV p72 expression level by Western Blot, single-stage treatment",ASFV [7],significant reduction in ASFV p72 expression level was observed only during the internalization stage
same,ASFV infection after co-incubation of TET and ASFV (virucidal effect),ASFV [8],did not significantly reduce ASFV infection
same,ASFV infection level,ASFV [9],less than 0.5%
same,"transferrin-Alexa594 internalization, treated versus untreated group",[10],no significant difference
same,"Dext (dextran-Alexa647) fluorescence signal, treated versus untreated group",macropinocytosis of PAMs,completely disappeared
same,uptake of dextran-Alexa647 by PAMs,macropinocytosis of PAMs,no uptake of dextran-Alexa647
same,"phosphorylation of Akt (Western Blot, Fig. 7(B))",PI3K/Akt pathway,partially inhibited
same,phosphorylation of Akt activated by ASFV internalization,PI3K/Akt pathway,inhibited the phosphorylation of Akt
same,levels of CP204L and B646L,ASFV [2],significantly suppressed
same,"inhibitory effect on LSDV (LSDV 117 protein, Western Blot)",LSDV,dose-dependent inhibitory effect
same,"inhibitory effect on PEDV (PEDV N protein, Western Blot)",PEDV,dose-dependent inhibitory effect
same,cytotoxicity,Vero cells,no cytotoxicity
same,cytotoxicity,MDBK cells,no cytotoxicity
same,cytotoxicity,IPEC-J2 cells,no cytotoxicity
